Results from patent US20240150372A1 (priority 2021, published 2024).
Where two headings read alike, the source gives them in different places.

Tests used:
hSERT = hSERT (Homo sapiens (Human), UniProt P31645); assay: hSERT fluorometric transporter inhibition assay (APP+ uptake, hSERT-HEK); type: cell-based
Description: (§1) Inhibition assays of transporters (hSERT and rVMAT2) were performed according to the following protocol.
(§2) Cell culture preparation and maintenance. Stably transfected hSERT-HEK and rVMAT2-HEK cellular cultures were maintained in Dulbecco's Minimal Essential Medium (DMEM) with GlutaMAX (Gibco) with the following additions: 10% (v/v) Fetal Bovine Serum (FBS, Atlanta Biologicals), 100 U/mL Penicillin (Gibco), and 10 μg/mL Streptomycin (Gibco). With regards to the former cell lineage, an additional ingredient, 500 μg/mL Geneticin (G418) (Gibco) was included to preserve the respective transgene.
(§3) hSERT and rVMAT2 fluorometric screening assays. For both hSERT and rVMAT2 screening experiments, respective singly transfected cells were seeded at a density of 0.09×10^6 cells/well in poly-D-Lysine (Alamanda Polymers, Inc.) coated white solid-bottom 96-well plates (Costar). Growth was permitted for approximately 44 hours in said aqueous media and at an incubation environment of 37° C. and 5% Carbon Dioxide. At the beginning of the experiment, the cellular growth solution was aspirated, and individual cells were rinsed with 150 μL of 1×Dulbecco's Phosphate Buffered Saline (PBS; HyClone). 63 μL of Experimental Media (consisting of the following contents: DMEM without phenol red but with 4.5 g/L of D-Glucose (Gibco), 1% (v/v) FBS (Atlanta Biologicals), 100 U/mL Penicillin (Gibco), and 10 μg/mL Streptomycin (Gibco)) with 2×tiered concentrations of inhibitor (or DMSO, the vehicle of these experiments) were added to the respective wells. […] A final solution of 120 μL of PBS is finally added to all corresponding wells for cell maintenance before undergoing fluorescence uptake reading by a BioTek H1MF plate reader. […]
(§4) Data analysis. […] Respective inhibitor values were first subtracted from vehicular values to quantify the respective fluorescence uptake. This metric was then analyzed using the dose-response-inhibitor nonlinear curve fitting model ([inhibitor] vs response (three parameters)) as supplied by GraphPad Prism 8 software. […]

C57BL/6J mice = assay: Mouse tail-flick test; type: in vivo; conditions: s.c., cumulative doses 1-30 mg/kg, 30 min post injection
Description: C57BL/6J (8-12 weeks, 22-31 g) were purchased from the Jackson Laboratory (Bar Harbor, ME) and housed 5 mice per cage with food and water available ad libitum. Mice were maintained on a 12-hr light/dark cycle (lights on 7:00-19:00) and all testing was done in the light cycle. Temperature was kept constant at 22±2° C., and relative humidity was maintained at 50±5%. Mice were moved to the testing room 30 minutes before the experiment to allow for acclimation. The body weight of each mouse and base tail-flick value were recorded. Mice were administered a 1 mg/kg s.c. dose of compound solution (volume of injection 220-310 μL based on body weight). After injection mice were returned to the home cage and allowed to rest for 30 minutes. Thirty minutes post injection the tail-flick measurement was taken using thermal stimulation via IR on a Ugo Basile unit set to 52 PSU (ten seconds was used as a maximum latency to prevent tissue damage). Mice were then administered 3 mg/kg s.c. dose, allowed to rest for 30 minutes, followed by another tail-flick measurement. […] Tail-flick latencies for the different doses were expressed as percentage of maximum potential effect (% MPE) by subtracting the experimental value by the base tail flick value then dividing by the difference between the maximum possible latency (10 seconds) and the base tail-flick value and finally multiplying by 100. […]

rKOR = rKOR (Rattus norvegicus (Rat), UniProt P34975); assay: rKOR agonist assay (cAMP), rKOR-CHO; type: cell-based
Description: EC50 values and % efficacy of control agonist (KOR: U-50,488) maximal response at 1 μM for rKOR-CHO were obtained by screening the selected compounds via commercially available assay services.

rVMAT2 = rVMAT2 (Rattus norvegicus (Rat), UniProt Q01827); assay: rVMAT2 fluorometric transporter inhibition assay (FFN206 uptake, rVMAT2-HEK); type: cell-based
Description: as §1, §2, §3, §4

male F344 rats [1] = assay: Morphine self-administration, repeated dosing regimen; type: in vivo, rat
[2] = test system: adult human primary ventricular myocytes; assay: Pro-arrhythmia assay in adult human primary ventricular cardiomyocytes (contractility); type: cell-based; conditions: 0.1-10 μM, 1 Hz pacing
Description: Cardiac adverse effects of iboga alkaloids and related analogs was assessed via a commercially available assay, procedure reported in (Nguyen, N. et al. 2017; Page, G. et al. 2016) (FIG. 1).
Isolation of adult human primary ventricular myocytes. Adult human primary ventricular myocytes were isolated from ethically consented donor hearts. A proprietary protocol was employed to enzymatically digest hearts and isolate cardiomyocytes.
Contractility recordings procedures. Cardiomyocytes were placed in a perfusion chamber mounted on the stage of inverted Motic AE31E (IonOptix) or Olympus IX83P1ZF microscopes (MyoBlazer) and continuously perfused at approximately 2 ml/min with recording buffer heated to 35±1° C. using an in-line heater from Warner Instruments (IonOptix & MyoBlazer) and allowed to equilibrate for 5 minutes under constant perfusion. The cells were field stimulated with supra-threshold voltage at a 1 Hz pacing frequency, with a bipolar pulse of 3 ms duration, using a pair of platinum wires placed on opposite sides of the chamber connected to a MyoPacer stimulator. […] The IonWizard software or MyoBLAZER Analysis software analyzed the periodicity in the optical density of these bands by means of a fast Fourier transform algorithm.
Pro-arrhythmia markers. […] STV (STV=Σ|CAn+1−CAn|(20×√2)^−1) was calculated with the last 20 transients of each control and test article concentration period. […]

male F344 rats [3] = assay: Morphine intravenous self-administration, single administration; type: in vivo, rat; conditions: 40 mg/kg IP
human cardiomyocytes = conditions: Rubi, L. et al 2017; cited from earlier work
[4] = biological target: human ethera-go-go-related gene (hERG) potassium channels (Homo sapiens (Human), UniProt Q12809); conditions: Alper, K. et al 2016; cited from earlier work

CCC1CC2C[C@H]3c4oc5ccc(O)cc5c4CCN2C13 (stereo partly drawn) [(16R)-Oxa-noribogaine]
IC50 (hSERT; ± SEM, read-out: hSERT (IC50)): 450 ± 70 nM
ED50, analgesia in tail-flick test (C57BL/6J mice): 2.8 mg/kg
% efficacy of control agonist (KOR: U-50,488) maximal response at 1 μM (rKOR; cAMP): (96%)
EC50 (rKOR; cAMP, read-out: rKOR (EC50)): < 10 nM
IC50 (rVMAT2; ± SEM, read-out: rVMAT2 (IC50)): 140 ± 30 nM

CCC1CC2CC3c4oc5ccc(O)cc5c4CCN(C2)C13 (centres unmarked) [oxa-noribogaine]
morphine intake in the following three sessions (male F344 rats [1]; after first 10 mg/kg): approximately 40 % of baseline levels
morphine intake recovered after administration (male F344 rats [1]; after first 40 mg/kg): approximately 60 % of VEH levels
morphine intake at the end of the dosing regimen (male F344 rats [1]; after last 5 mg/kg): approximately 8 % of baseline levels
morphine intake in the following session (male F344 rats [1]; after second 10 mg/kg): approximately 25 % of baseline levels
morphine intake recovered over following three days (male F344 rats [1]; after second 40 mg/kg): approximately 50%
morphine intake eighteen days following the last administration (male F344 rats [1]; eighteen days after last 5 mg/kg): 40%
morphine intake in the session following administration (male F344 rats [1]; first 10 mg/kg): approximately 4 infusions
IC50 (hSERT): 900 ± 120 nM
pro-arrhythmia effects [2]: no pro-arrhytmia effects even at high concentrations
EC50 (rKOR): < 10 nM
Emax (rKOR; cAMP, read-out: % efficacy of control agonist (KOR: U-50,488) maximal response at 1 μM): 102%
IC50 (rVMAT2): 670 ± 110 nM

epi-oxa-noribogaine
morphine intake, duration of reduction (male F344 rats [3]): significantly decreased morphine self-administration for three sessions

CC[C@H]1C[C@H]2C[C@H]3c4[nH]c5ccc(O)cc5c4CCN(C2)C13 [noribogaine]
action potential repolarization (human cardiomyocytes): significantly delayed action potential repolarization
pro-arrhythmia effects [2]: exhibits pro-arrhytmia effects
hERG block IC50 [4]: low micromolar

CCC1CC2C[C@@H]3c4oc5ccc(O)cc5c4CCN2C13 (stereo partly drawn) [(16S)-Oxa-noribogaine]
IC50 (hSERT; ± SEM, read-out: hSERT (IC50)): 2900 ± 680 nM
ED50, analgesia in tail-flick test (C57BL/6J mice): > 30 mg/kg
% efficacy of control agonist (KOR: U-50,488) maximal response at 1 μM (rKOR; cAMP): (25%)
EC50 (rKOR; cAMP, read-out: rKOR (EC50)): ~300 nM
IC50 (rVMAT2; ± SEM, read-out: rVMAT2 (IC50)): 2800 ± 550 nM
